Measurements taken from publication PMC7358528, “Tuning Scorpion Toxin Selectivity: Switching From KV1.1 to KV1.3” (Frontiers in Pharmacology, 2020).
Read-outs that look alike come from different tables or passages of the source. Where a SMILES comes first, the peptide text is derived from it. Bridges are numbered along the chain shown (N, C = ends).

Tests used:
[1] = molecular target: T1, KV1.1 (Rattus norvegicus, UniProt P10499); assay: Two-electrode voltage clamp on KV1.1 expressed in Xenopus oocytes; format: cell-based; settings: for IC50: rKV1.1, Xenopus oocytes, two-electrode voltage clamp, ND96 pH 7.4, 18–22°C, 0 mV from −90 mV
T1 construct: expressed in transfected cells; host or cells: Xenopus laevis oocytes injected with cRNA
T1 sequence (P10499 whole entry): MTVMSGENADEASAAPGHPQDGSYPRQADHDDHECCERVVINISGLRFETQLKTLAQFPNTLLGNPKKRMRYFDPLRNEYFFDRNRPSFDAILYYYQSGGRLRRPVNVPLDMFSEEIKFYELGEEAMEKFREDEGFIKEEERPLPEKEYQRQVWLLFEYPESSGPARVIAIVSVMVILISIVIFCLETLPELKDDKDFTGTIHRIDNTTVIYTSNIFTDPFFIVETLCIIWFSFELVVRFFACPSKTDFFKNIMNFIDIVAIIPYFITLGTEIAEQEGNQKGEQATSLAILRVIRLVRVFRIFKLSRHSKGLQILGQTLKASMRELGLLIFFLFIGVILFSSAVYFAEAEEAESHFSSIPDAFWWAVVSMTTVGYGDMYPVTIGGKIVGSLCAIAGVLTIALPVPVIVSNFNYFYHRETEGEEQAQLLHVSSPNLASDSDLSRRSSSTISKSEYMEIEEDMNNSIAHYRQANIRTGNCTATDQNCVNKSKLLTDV
Procedure: (§1) Ion Channel Expression in Xenopus Oocytes
(§2) The major pipeline of ion channel expression in oocytes was described previously ([Peigneur et al., 2011]). Briefly, for the expression of KV genes (rat (r)KV1.1, rKV1.2, human (h)KV1.3, rKV1.4, rKV1.5, and rKV1.6) in Xenopus laevis oocytes, linearized plasmids containing the respective gene sequences were transcribed using the T7 mMESSAGE-mMACHINE transcription kit (Ambion). 50 nl of cRNA solution (1 ng/nl) were injected into oocytes using a micro-injector (Drummond Scientific). The oocytes were incubated in ND96 solution: 96 mM NaCl, 2 mM KCl, 1.8 mM CaCl2, 2 mM MgCl2 and 5 mM HEPES, pH 7.4, supplemented with 50 mg/l gentamycin sulfate.
(§3) Electrophysiological Recordings
(§4) Two-electrode voltage-clamp recordings were performed at room temperature (18–22°C) using a Geneclamp 500 amplifier (Molecular Devices) controlled by a pClamp data acquisition system (Axon Instruments) as described ([Peigneur et al., 2011]). Bath solution composition was ND96. KV currents were evoked by 250-ms depolarization to 0 mV from a holding potential of −90 mV, followed by 250-ms pulses to −50 mV. For current–voltage relationship studies, currents were evoked by 10-mV depolarization steps. Concentration–response curves were constructed, in which the percentage of current inhibition was plotted as a function of toxin concentration. Data were fitted with the Hill equation: y = 100/[1 + (IC50/[toxin])^h], where y is the amplitude of the toxin-induced effect, [toxin] is toxin concentration, and h is the Hill coefficient. Comparison of two sample means was performed using a paired Student’s t-test (p-value of 0.05 was used as a threshold of significance). All data were obtained in at least three independent experiments (n ≥ 3) and are presented as mean ± standard error of the mean.

[2] = molecular target: T2, KV1.2 (Rattus norvegicus, UniProt P63142); assay: Two-electrode voltage clamp on KV1.2 expressed in Xenopus oocytes; format: cell-based
T2 construct: expressed in transfected cells; host or cells: Xenopus laevis oocytes injected with cRNA
T2 sequence (P63142 whole entry): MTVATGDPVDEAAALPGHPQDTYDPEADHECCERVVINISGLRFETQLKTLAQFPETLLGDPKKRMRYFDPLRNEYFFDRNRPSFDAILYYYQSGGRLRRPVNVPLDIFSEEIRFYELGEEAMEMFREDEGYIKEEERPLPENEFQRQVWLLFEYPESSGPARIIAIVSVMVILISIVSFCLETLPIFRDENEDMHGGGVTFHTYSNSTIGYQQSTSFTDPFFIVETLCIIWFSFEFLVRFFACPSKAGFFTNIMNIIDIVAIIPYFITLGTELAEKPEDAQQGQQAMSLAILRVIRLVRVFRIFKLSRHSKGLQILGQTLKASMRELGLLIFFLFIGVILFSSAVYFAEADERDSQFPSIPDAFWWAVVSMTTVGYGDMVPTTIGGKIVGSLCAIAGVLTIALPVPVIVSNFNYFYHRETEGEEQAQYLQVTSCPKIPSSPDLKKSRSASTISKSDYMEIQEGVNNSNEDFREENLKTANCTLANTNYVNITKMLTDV
Procedure: as §1, §2, §3, §4

[3] = molecular target: T3, KV1.6 (Rattus norvegicus, UniProt P17659); assay: Two-electrode voltage clamp on KV1.6 expressed in Xenopus oocytes; format: cell-based; settings: mean ± SEM, n ≥ 3
T3 construct: expressed in transfected cells; host or cells: Xenopus laevis oocytes injected with cRNA
T3 sequence (P17659 whole entry): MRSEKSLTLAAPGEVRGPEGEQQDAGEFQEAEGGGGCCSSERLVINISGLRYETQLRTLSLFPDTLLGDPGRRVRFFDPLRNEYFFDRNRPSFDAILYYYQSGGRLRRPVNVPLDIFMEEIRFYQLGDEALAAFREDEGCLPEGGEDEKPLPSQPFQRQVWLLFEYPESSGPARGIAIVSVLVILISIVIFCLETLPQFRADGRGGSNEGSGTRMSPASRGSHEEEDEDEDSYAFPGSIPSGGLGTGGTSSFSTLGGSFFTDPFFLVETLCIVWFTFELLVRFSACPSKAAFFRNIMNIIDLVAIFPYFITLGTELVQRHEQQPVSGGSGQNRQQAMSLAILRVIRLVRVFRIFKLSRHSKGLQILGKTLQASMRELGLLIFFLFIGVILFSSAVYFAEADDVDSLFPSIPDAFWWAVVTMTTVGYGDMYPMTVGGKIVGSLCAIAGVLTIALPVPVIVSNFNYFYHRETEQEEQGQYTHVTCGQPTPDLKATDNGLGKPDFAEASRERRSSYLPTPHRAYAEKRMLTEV
Procedure: as §1, §2, §3
(§5) Two-electrode voltage-clamp recordings were performed at room temperature (18–22°C) using a Geneclamp 500 amplifier (Molecular Devices) controlled by a pClamp data acquisition system (Axon Instruments) as described ([Peigneur et al., 2011]). Bath solution composition was ND96. KV currents were evoked by 250-ms depolarization to 0 mV from a holding potential of −90 mV, followed by 250-ms pulses to −50 mV. For current–voltage relationship studies, currents were evoked by 10-mV depolarization steps. Concentration–response curves were constructed, in which the percentage of current inhibition was plotted as a function of toxin concentration. […]

[4] = molecular target: T4, KV1.3 (Homo sapiens, UniProt P22001); assay: Two-electrode voltage clamp on KV1.3 expressed in Xenopus oocytes; format: cell-based; design: expressed in transfected cells; host or cells: Xenopus laevis oocytes injected with cRNA; settings: for inhibition at 0.01 µM: 10 nM, KV1.3, Xenopus oocytes, read-out: inhibition of potassium current
T4 sequence (P22001 whole entry): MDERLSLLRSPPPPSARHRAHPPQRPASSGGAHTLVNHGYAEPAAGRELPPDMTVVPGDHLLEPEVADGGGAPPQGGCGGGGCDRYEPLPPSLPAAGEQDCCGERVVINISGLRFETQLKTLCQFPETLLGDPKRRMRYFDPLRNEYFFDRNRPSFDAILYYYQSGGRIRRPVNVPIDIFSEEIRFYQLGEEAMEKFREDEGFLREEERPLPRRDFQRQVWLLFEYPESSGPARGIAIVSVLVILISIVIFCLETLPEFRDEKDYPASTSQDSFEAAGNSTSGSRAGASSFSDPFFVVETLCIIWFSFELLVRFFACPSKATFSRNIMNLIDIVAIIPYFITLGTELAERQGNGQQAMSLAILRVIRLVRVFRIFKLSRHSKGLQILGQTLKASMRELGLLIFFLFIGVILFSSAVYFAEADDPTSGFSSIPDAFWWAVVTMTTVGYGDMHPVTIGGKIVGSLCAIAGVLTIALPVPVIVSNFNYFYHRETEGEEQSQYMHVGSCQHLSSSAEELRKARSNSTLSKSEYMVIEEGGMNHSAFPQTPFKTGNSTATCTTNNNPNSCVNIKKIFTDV
Procedure: as §1, §2, §3, §4

[5] = molecular target: T5, KV1.4 (Rattus norvegicus, UniProt P15385); assay: Two-electrode voltage clamp on KV1.4 expressed in Xenopus oocytes; format: cell-based; settings: rKV1.4, Xenopus oocytes, up to 1 µM
T5 construct: expressed in transfected cells; host or cells: Xenopus laevis oocytes injected with cRNA
T5 sequence (P15385 whole entry): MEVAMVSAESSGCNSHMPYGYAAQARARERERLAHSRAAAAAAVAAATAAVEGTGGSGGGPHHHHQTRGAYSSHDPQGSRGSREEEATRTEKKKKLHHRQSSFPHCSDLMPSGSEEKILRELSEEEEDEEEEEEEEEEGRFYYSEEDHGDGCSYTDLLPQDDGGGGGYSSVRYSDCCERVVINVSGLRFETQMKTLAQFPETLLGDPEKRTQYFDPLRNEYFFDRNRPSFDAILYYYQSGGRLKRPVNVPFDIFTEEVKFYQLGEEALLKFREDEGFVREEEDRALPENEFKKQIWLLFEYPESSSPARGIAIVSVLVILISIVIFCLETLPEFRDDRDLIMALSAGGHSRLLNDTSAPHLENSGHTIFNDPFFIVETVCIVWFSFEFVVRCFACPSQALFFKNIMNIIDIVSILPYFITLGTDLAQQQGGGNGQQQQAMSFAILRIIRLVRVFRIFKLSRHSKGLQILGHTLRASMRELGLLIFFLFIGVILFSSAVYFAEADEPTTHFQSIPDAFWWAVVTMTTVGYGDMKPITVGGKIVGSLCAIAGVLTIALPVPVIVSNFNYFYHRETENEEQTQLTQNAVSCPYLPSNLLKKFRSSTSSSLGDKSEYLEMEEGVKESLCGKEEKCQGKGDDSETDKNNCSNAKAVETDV
Procedure: as §1, §2, §3, §5

[6] = molecular target: T6, KV1.5 (Rattus norvegicus, UniProt P19024); assay: Two-electrode voltage clamp on KV1.5 expressed in Xenopus oocytes; format: cell-based; settings: rKV1.5, Xenopus oocytes, up to 1 µM
T6 construct: expressed in transfected cells; host or cells: Xenopus laevis oocytes injected with cRNA
T6 sequence (P19024 whole entry): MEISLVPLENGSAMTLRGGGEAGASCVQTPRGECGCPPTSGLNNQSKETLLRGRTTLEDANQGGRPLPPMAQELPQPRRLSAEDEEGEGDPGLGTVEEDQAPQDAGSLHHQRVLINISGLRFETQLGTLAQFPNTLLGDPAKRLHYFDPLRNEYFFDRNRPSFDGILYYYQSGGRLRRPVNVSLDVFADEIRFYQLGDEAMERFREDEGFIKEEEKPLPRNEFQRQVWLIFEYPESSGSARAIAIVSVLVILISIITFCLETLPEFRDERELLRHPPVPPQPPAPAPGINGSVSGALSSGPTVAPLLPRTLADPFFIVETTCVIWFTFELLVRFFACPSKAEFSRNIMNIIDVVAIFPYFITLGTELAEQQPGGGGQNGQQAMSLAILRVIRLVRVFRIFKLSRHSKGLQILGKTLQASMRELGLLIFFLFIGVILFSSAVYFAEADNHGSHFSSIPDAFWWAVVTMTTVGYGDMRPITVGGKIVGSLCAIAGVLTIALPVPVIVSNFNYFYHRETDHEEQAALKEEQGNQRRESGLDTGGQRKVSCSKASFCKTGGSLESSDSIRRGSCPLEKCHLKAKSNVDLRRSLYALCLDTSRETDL
Procedure: as §1, §2, §3, §5

[7] = molecular target: T4, KV1.3
[8] = molecular target: rat KV1.1 (rat) (UniProt P10499)
rat KV1.1 (rat), sequence (P10499 whole entry): as the sequence (P10499 whole entry) above

[9] = molecular target: rat KV1.2 (rat) (UniProt P63142)
rat KV1.2 (rat), sequence (P63142 whole entry): as the sequence (P63142 whole entry) above

[10] = molecular target: rat KV1.6 (rat) (UniProt P17659)
rat KV1.6 (rat), sequence (P17659 whole entry): as the sequence (P17659 whole entry) above

[11] = molecular target: rat KV1.1 (rat) (UniProt P10499); remark: listed apart in the source
[12] = molecular target: rat KV1.1 (rat) (UniProt P10499); remark: listed apart in the source
[13] = molecular target: T4, KV1.3; remark: listed apart in the source
[14] = molecular target: rat KV1.2 (rat) (UniProt P63142); remark: listed apart in the source
[15] = molecular target: rat KV1.6 (rat) (UniProt P17659); remark: listed apart in the source

CC[C@H](C)[C@H](NC(=O)CNC(=O)[C@@H](N)C(C)C)C(=O)N[C@@H](CC(N)=O)C(=O)N[C@H](C(=O)N[C@@H](CCCCN)C(=O)N[C@H]1CSSC[C@@H]2NC(=O)[C@H](CCCCN)NC(=O)CNC(=O)[C@H](Cc3ccccc3)NC(=O)[C@H](CCCNC(=N)N)NC(=O)[C@H](CCSC)NC(=O)CNC(=O)[C@H](C)NC(=O)[C@H](CC(=O)O)NC(=O)[C@H](CCCCN)NC(=O)[C@@H]3CSSC[C@@H](C(=O)N[C@H](C(=O)N4CCC[C@H]4C(=O)N[C@@H](CCCCN)C(N)=O)[C@@H](C)O)NC(=O)[C@H](CC(=O)O)NC(=O)[C@H](CSSC[C@H](NC(=O)[C@H](CCC(N)=O)NC(=O)CNC(=O)[C@H](CO)NC(=O)[C@H](Cc4c[nH]cn4)NC(=O)[C@H](CCCCN)NC1=O)C(=O)N[C@@H](CC(C)C)C(=O)N[C@@H](CCCCN)C(=O)N1CCC[C@H]1C(=O)N3)NC(=O)[C@H](CCCCN)NC(=O)CNC(=O)[C@H](CC(N)=O)NC(=O)[C@H]([C@@H](C)CC)NC2=O)C(C)C [MeKTx13-3] (H-VGINVKCKHSGQCLKPCKDAGMRFGKCINGKCDCTPK-NH2; disulfide 7-27, 13-32, 17-34; N-terminus and C-terminus assumed)
Hill coefficient ([1]; KV1.1 concentration–response, mean ± SEM, n ≥ 3): 0.9 ± 0.1
Hill coefficient ([2]; KV1.2 concentration–response, mean ± SEM, n ≥ 3): 1.3 ± 0.3
Hill coefficient ([3]; KV1.6 concentration–response): 1.0 ± 0.1
inhibition at 0.01 µM [4]: ~50%
Hill coefficient ([4]; KV1.3 concentration–response, mean ± SEM, n ≥ 3): 0.8 ± 0.2

CC[C@H](C)[C@H](NC(=O)CNC(=O)[C@@H](N)C(C)C)C(=O)N[C@@H](CC(N)=O)C(=O)N[C@H](C(=O)N[C@@H](CCCCN)C(=O)N[C@H]1CSSC[C@@H]2NC(=O)[C@H](CCCCN)NC(=O)CNC(=O)[C@H](Cc3ccccc3)NC(=O)[C@H](CCCNC(=N)N)NC(=O)[C@H](CCSC)NC(=O)CNC(=O)[C@H](C)NC(=O)[C@H](CC(=O)O)NC(=O)[C@H](C)NC(=O)[C@@H]3CSSC[C@@H](C(=O)N[C@H](C(=O)N4CCC[C@H]4C(=O)N[C@@H](CCCCN)C(=O)O)[C@@H](C)O)NC(=O)[C@H](CCCNC(=N)N)NC(=O)[C@H](CSSC[C@H](NC(=O)[C@H](C)NC(=O)CNC(=O)[C@H](CO)NC(=O)[C@H](Cc4c[nH]cn4)NC(=O)[C@H](CCCCN)NC1=O)C(=O)N[C@@H](CC(C)C)C(=O)N[C@@H](C)C(=O)N1CCC[C@H]1C(=O)N3)NC(=O)[C@H](CCCCN)NC(=O)CNC(=O)[C@H](CC(N)=O)NC(=O)[C@H]([C@@H](C)CC)NC2=O)C(C)C [MeKTx13-3_AAAR] (H-VGINVKCKHSGACLAPCADAGMRFGKCINGKCRCTPK-OH; disulfide 7-27, 13-32, 17-34)
inhibition at 0.01 µM ([1]; 10 nM, KV1.1, Xenopus oocytes, read-out: inhibition of potassium current): ~15%
IC50 ([1]; mean ± SEM, n ≥ 3): 541 ± 48.6 nM
inhibition at 0.01 µM ([2]; 10 nM, KV1.2, Xenopus oocytes, read-out: inhibition of potassium current): ~5%
IC50 ([2]; rKV1.2, Xenopus oocytes, two-electrode voltage clamp, ND96 pH 7.4, 18–22°C, 0 mV from −90 mV, mean ± SEM, n ≥ 3): 208 ± 15.2 nM
IC50 [5]: > 1000 nM
IC50 [6]: > 1000 nM
IC50 ([3]; rKV1.6, Xenopus oocytes, two-electrode voltage clamp, ND96 pH 7.4, 18–22°C, 0 mV from −90 mV): 1520 ± 183 nM
inhibition at 0.01 µM [4]: ~50%
IC50 ([4]; hKV1.3, Xenopus oocytes, two-electrode voltage clamp, ND96 pH 7.4, 18–22°C, 0 mV from −90 mV, mean ± SEM, n ≥ 3): 9.1 ± 0.4 nM
KV1.1/KV1.3 selectivity factor ([4]; ratio of IC50 values KV1.1/KV1.3): 60

CC[C@H](C)[C@H](NC(=O)CNC(=O)[C@@H](N)C(C)C)C(=O)N[C@@H](CC(N)=O)C(=O)N[C@H](C(=O)N[C@@H](CCCCN)C(=O)N[C@H]1CSSC[C@@H]2NC(=O)[C@H](CCCCN)NC(=O)CNC(=O)[C@H](Cc3ccccc3)NC(=O)[C@H](CCCNC(=N)N)NC(=O)[C@H](CCSC)NC(=O)CNC(=O)[C@H](C)NC(=O)[C@H](CC(=O)O)NC(=O)[C@H](CCCCN)NC(=O)[C@@H]3CSSC[C@@H](C(=O)N[C@H](C(=O)N4CCC[C@H]4C(=O)N[C@@H](CCCCN)C(=O)O)[C@@H](C)O)NC(=O)[C@H](CC(=O)O)NC(=O)[C@H](CSSC[C@H](NC(=O)[C@H](CCC(N)=O)NC(=O)CNC(=O)[C@H](CO)NC(=O)[C@H](Cc4c[nH]cn4)NC(=O)[C@H](CCCCN)NC1=O)C(=O)N[C@@H](CC(C)C)C(=O)N[C@@H](CCCCN)C(=O)N1CCC[C@H]1C(=O)N3)NC(=O)[C@H](CCCCN)NC(=O)CNC(=O)[C@H](CC(N)=O)NC(=O)[C@H]([C@@H](C)CC)NC2=O)C(C)C [Recombinant MeKTx13-3] (H-VGINVKCKHSGQCLKPCKDAGMRFGKCINGKCDCTPK-OH; disulfide 7-27, 13-32, 17-34)
IC50 ([1]; mean ± SEM, n ≥ 3): 6.7 ± 2.7 nM
inhibition at 0.01 µM [4]: ~50%

MeKTx13-3, natural toxin from Mesobuthus eupeus venom (peptide)
IC50 of inhibition of potassium current, two-electrode voltage clamp, X. laevis oocytes [7]: 8.9 nM
IC50 of inhibition of potassium current, two-electrode voltage clamp, X. laevis oocytes [8]: 1.9 nM
IC50 of inhibition of potassium current, two-electrode voltage clamp, X. laevis oocytes [9]: 106 nM
IC50 of inhibition of potassium current, two-electrode voltage clamp, X. laevis oocytes [10]: 63.4 nM
percent of potassium current blocked at 10 nM toxin, two-electrode voltage clamp, X. laevis oocytes [11]: > 95%

Recombinant MeKTx13-3 (peptide)
IC50 of inhibition of potassium current, two-electrode voltage clamp, X. laevis oocytes [12]: 6.7 nM
percent of potassium current blocked at 10 nM toxin, two-electrode voltage clamp, X. laevis oocytes [13]: 50%
percent of potassium current blocked at 10 nM toxin, two-electrode voltage clamp, X. laevis oocytes [11]: > 95%
percent of potassium current blocked at 10 nM toxin, two-electrode voltage clamp, X. laevis oocytes [14]: 25%
percent of potassium current blocked at 10 nM toxin, two-electrode voltage clamp, X. laevis oocytes [15]: 15%
